Results from patent US6239138A, “Vitronectin receptor antagonist” (SmithKline Beecham Corporation, priority 1999, dated 2001).

Legend:
[1] = biological target: T1, αvβ3 (vitronectin receptor) (Homo sapiens, UniProt P05106+P06756); assay: Solid-phase [3H]-SK&F-107260 binding to αvβ3 (inhibition of vitronectin binding); conditions: [3H]-SK&F-107260 as ligand, 5.0 nM; human placenta or platelet αvβ3
T1 construct: Human placenta or human platelet αvβ3; from tissue; host or cells: human placenta or human platelets
Experimental: Solid-Phase [^3 H]-SK&F-107260 Binding to αvβ3 : Human placenta or human platelet αvβ3 (0.1-0.3 mg/mL) in buffer T (containing 2 mM CaCl2 and 1% octylglucoside) was diluted with buffer T containing 1 mM CaCl2, 1 mM MnCl2, 1 mM MgCl2 (buffer A) and 0.05% NaN3, and then immediately added to 96-well ELISA plates (Corning, New York, N.Y.) at 0.1 mL per well. 0.1-0.2 ,g of αvβ3 was added per well. The plates were incubated overnight at 4° C. At the time of the experiment, the wells were washed once with buffer A and were incubated with 0.1 mL of 3.5% bovine serum albumin in the same buffer for 1 hr at room temperature. Following incubation the wells were aspirated completely and washed twice with 0.2 mL buffer A. […]
The plates were incubated for 1 hr at room temperature. […] The receptors were solubilized with 0.1 mL of 1% SDS and the bound [^3 H]-SK&F-107260 was determined by liquid scintillation counting with the addition of 3 mL Ready Safe in a Beckman LS Liquid Scintillation Counter, with 40% efficiency. Nonspecific binding of [^3 H]-SK&F-107260 was determined in the presence of 2 LM SK&F-107260 and was consistently less than 1% of total radioligand input. […] The Ki (dissociation constant of the antagonist) was calculated according to the equation: Ki =IC50 /(1+L/Kd), where L and Kd were the concentration and the dissociation constant of [^3 H]-SK&F-107260, respectively.

osteoclasts = conditions: Sato et al. 1990 (echistatin); Bertolini et al. (cyclic peptide); cited from earlier work
bone resorption [2] = conditions: Sato et al., J. Cell Biol. 1990; cited from earlier work
bone resorption [3] = conditions: rat; Fisher et al., Endocrinology 1993; cited from earlier work

T1 sequence (P06756 31-889 limits assumed): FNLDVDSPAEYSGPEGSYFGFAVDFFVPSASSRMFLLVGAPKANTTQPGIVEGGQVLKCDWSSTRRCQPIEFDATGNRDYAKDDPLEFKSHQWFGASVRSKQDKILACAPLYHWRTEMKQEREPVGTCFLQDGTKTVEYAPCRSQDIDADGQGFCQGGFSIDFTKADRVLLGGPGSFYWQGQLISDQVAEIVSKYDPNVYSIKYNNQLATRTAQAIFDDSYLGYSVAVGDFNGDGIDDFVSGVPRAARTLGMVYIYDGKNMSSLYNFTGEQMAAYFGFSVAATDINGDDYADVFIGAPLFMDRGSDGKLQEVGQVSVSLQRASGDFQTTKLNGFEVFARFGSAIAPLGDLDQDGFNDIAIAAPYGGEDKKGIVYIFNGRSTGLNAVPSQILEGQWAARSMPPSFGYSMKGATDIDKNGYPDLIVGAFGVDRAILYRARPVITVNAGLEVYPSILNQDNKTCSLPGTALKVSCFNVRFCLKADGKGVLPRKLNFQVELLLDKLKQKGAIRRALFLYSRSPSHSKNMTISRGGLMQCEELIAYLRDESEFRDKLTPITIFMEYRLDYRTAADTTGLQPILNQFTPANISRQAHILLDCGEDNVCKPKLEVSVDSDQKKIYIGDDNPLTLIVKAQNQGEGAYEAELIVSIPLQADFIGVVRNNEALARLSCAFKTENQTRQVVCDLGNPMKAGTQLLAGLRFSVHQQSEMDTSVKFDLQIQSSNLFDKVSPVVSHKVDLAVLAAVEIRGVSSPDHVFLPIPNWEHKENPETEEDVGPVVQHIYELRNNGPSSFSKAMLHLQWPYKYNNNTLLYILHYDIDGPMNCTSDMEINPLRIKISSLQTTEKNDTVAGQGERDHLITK
T1 sequence (P06756 891-1048 partner limits assumed): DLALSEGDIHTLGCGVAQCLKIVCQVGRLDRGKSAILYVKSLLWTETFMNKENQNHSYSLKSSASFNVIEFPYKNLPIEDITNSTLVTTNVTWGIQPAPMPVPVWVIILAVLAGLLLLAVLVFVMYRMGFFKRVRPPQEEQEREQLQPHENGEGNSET
T1 sequence (P05106 27-788): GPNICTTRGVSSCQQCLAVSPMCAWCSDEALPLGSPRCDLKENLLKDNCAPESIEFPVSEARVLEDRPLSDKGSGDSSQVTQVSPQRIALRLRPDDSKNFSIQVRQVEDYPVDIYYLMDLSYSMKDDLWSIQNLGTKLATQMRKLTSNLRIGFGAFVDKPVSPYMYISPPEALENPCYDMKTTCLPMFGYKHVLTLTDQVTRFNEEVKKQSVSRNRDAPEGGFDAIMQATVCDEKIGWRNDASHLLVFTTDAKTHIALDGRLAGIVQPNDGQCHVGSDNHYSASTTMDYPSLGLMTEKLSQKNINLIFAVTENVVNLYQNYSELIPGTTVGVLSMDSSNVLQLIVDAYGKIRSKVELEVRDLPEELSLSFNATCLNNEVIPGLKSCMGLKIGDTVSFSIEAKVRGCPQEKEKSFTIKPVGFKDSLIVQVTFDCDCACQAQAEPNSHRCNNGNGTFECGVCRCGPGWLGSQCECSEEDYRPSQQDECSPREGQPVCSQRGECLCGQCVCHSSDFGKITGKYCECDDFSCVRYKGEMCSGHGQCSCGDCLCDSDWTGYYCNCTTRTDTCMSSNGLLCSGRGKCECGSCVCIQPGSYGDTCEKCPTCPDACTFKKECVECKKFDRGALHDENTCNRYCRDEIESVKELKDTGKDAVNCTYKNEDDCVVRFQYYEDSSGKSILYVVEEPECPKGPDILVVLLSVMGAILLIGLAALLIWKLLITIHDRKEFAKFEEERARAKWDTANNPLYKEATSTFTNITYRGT

Compound	Ki [1] [µM]	inhibition of attachment of osteoclasts to bone (osteoclasts)	inhibition of bone resorption in tissue culture (bone resorption [2])	inhibition of bone resorption in vivo (bone resorption [3])
O=C(O)CC1Cc2ccc(OCCCNc3ccccn3)cc2CCC1=O (racemic) [(±)-2-(2-Pyridylamino)propoxy-6,7,8,9-tetrahydro-7-oxo-5H-benzocycloheptenyl-6-acetic acid]	~0.023	–	–	–
cylco-S,S-N^α -acetyl-cysteinyl-N^α -methyl-argininyl-glycyl-aspartyl-penicillamine	–	inhibits osteoclast attachment to bone	–	–
echistatin	–	inhibits attachment of osteoclasts to bone	potent inhibitor of bone resorption in tissue culture	inhibits bone resorption in vivo in the rat
